Measurements as given in patent US11262348B2, “Cell-based assays for detection of antibodies or other factors that neutralize uptake of lysosomal enzymes” (BIOMARIN PHARMACEUTICAL INC., priority 2015, dated 2022).
Entries after “also recorded” stand apart in the source; their conditions may differ.

Tests used:
[1] = tested on: Jurkat cells; assay: Cell-based flow cytometry assay of Alexa488-rhGALNS uptake (screening assay, % SI); parameters: species or system human
Protocol: Cell uptake of rhGALNS is measured using flow cytometry to determine the amount of fluorophore-conjugated rhGALNS taken up by Jurkat cells. Jurkat cells are a non-adherent human T cell line that express CI-MPR, which binds and targets rhGALNS to the lysosome. rhGALNS neutralizing antibodies (NAb) are detected in samples by a decrease in fluorophore-conjugated rhGALNS uptake (calculated as % inhibition) that exceeds the screening cut point (SCP).
For a 1:1 dilution, 60 μL per well of controls were added in duplicate or in quadruplicate for 2 sets into the appropriate wells. Similarly, for a 1:1 dilution of sample, 60 μL per well of patient screening samples were added into the appropriate wells. For a 1:1 dilution for the confirmation assay, 60 μL per well of patient confirmation samples were added in duplicate into the corresponding wells. The plate was covered, wrapped in foil and allowed to incubate overnight for 14 to 20 hours at 2-8° C.
Assay: Prior to the sample incubation step, the cell plates were removed from the CO2 incubator and observed to ensure the cells were healthy and viable. […] After the incubation was completed, the cells were washed in PBS by centrifuging the plate for 6 min at 310×g in a tabletop centrifuge at 14 to 18° C., repeated two to five times as appropriate. After the last wash, the plate was removed from the centrifuge, the cell pellet resuspended in 100 μL viability stain (red fluorescent reactive dye 1:1000 dilution) and tested for viability. Once viability testing was complete, the cells were centrifuged 6 min at 310×g in a tabletop centrifuge at 14 to 18° C.
Percent Signal Inhibition (% SI) is calculated as [% SI=1—mean median fluorescence intensity (MFI) of sample/mean MFI of control×100]. Confirmatory assay data were analyzed as recovery ratio, defined as mean confirmatory assay MFI of sample/mean screening assay MFI of sample. The titer was calculated as the interpolated dilution factor at which the sample crossed the titer cut point determined by linear regression analysis (Microsoft Excel).

[2] = tested on: Jurkat cells; assay: Flow cytometry uptake of labeled GAA with IGF-II tag; assay type: cell-based, human; details: for inhibition of rhGAA-IGF-II uptake (in words): Jurkat cells (Jurkat and HepG2 not distinguished); for inhibition of uptake: rhGAA-IGF-II uptake into Jurkat cells
Protocol: The assay was also validated for a CI-MPR ligand that is not mannose-6 phosphate. The ability of CI-MPR expressing Jurkat or HepG2 cells were analyzed by flow cytometry for their ability to take up labeled GAA comprising an IGF-II tag, which facilitates binding to the CI-MPR. […] This uptake was inhibited by unlabeled GAA as well as anti-IGFII antibody.

Compound: Cc1cc(-c2ccc(/N=N/c3c(S(=O)(=O)O)cc4cc(S(=O)(=O)O)cc(N)c4c3O)c(C)c2)ccc1/N=N/c1c(S(=O)(=O)O)cc2cc(S(=O)(=O)O)cc(N)c2c1O [trypan blue, reference compound]
- fluorescence of cells treated with Alexa488-labeled anti-CD3 ([1]; increasing concentrations of trypan blue): reduced
- impact on Alexa488-rhGALNS MFI values ([1]; trypan blue up to 0.4%): no impact

Compound: C=C1[C@@H](C)[C@H]2[C@H](Cc3ccccc3)NC(=O)[C@]23OC(=O)/C=C/[C@H](O)CCC[C@@H](C)C/C=C/[C@H]3[C@@H]1O [cytochalasin B, reference compound]
- MFI signal emitted from Alexa488-rhGALNS-treated cells ([1]; 374 μM cytochalasin B, pretreated 1 hour): 777±4.2

Compound: O=C[C@@H](O)[C@@H](O)[C@H](O)[C@H](O)COP(=O)(O)O [M6P, mannose-6-phosphate, reference compound]
- inhibition of rhGALNS uptake into Jurkat cells (in words) [1]: dose dependent effect; also recorded: dose dependently abrogated; also recorded: completely blocked
- inhibition of rhGALNS uptake ([1]; 0.5M M6P): approximately 32%
- inhibition of rhGALNS uptake ([1]; 5M M6P): approximately 96%
- IC50 ([1]; Homo sapiens, Jurkat cells): 453 µM
- inhibition of rhGAA-IGF-II uptake (in words) [2]: partial inhibition

Compound: unlabeled GAA: unlabeled acid alpha glucosidase used as a competitor of GAA-IGFII uptake
- inhibition of rhGAA-IGF-II uptake (in words) [2]: inhibited

Compound: IGF-II: CI-MPR ligand tested as a possible neutralizing factor
- inhibition of rhGALNS uptake into Jurkat cells (in words) [1]: partial inhibition
- inhibition of uptake ([2]; 0.6M excess IGF-II): approximately 58%
- inhibition of uptake ([2]; 50M excess IGF-II): approximately 95%
- inhibition of rhGAA-IGF-II uptake (in words) [2]: dose dependent effect
